Values of other authors as cited in patent publication US20250075209A1, “RNAS FOR COMPLEMENT INHIBITION” (Apellis Pharmaceuticals, Inc., priority 2021, published 2025).
Bridges are numbered along the chain shown (N, C = ends). [ ]: non-standard residue; d: D form. Bpa = N[C@@H](Cc1ccc(C(=O)c2ccccc2)cc1)C(=O)O; 2Nal = N[C@@H](Cc1ccc2ccccc2c1)C(=O)O

Tested on: complement activation
Settings: relative to compstatin amidated at the C-terminus; based on published data (WO2004/026328, WO2007044668, Mallik 2005, Katragadda 2006); cited from earlier work

Row | Substance | Activity over compstatin [xmore]
1 | Ac-ICV(2-Nal)QDWGAHRCT-COOH (Ac-ICV[2Nal]QDWGAHRCT-OH; not fully specified (bridges); printed as Ac-ICV(2-Nal)QDWGAHRCT-COOH; cysteine pairing not given here) [Ac V4(2-Nal)/H9A-OH] | 38
2 | Ac-ICV(Bpa)QDWGAHRCT-CONH2 (Ac-ICV[Bpa]QDWGAHRCT-NH2; not fully specified (bridges); printed as Ac-ICV(Bpa)QDWGAHRCT-CONH2; cysteine pairing not given here) [Ac-V4(Bpa)/H9A] | 86
3 | Ac-ICV(Bpa)QDWGAHRCT-COOH (Ac-ICV[Bpa]QDWGAHRCT-OH; not fully specified (bridges); printed as Ac-ICV(Bpa)QDWGAHRCT-COOH; cysteine pairing not given here) [Ac-V4(Bpa)/H9A-OH] | 49
4 | Ac-ICVVQDWGHHRCT-CONH2 [Ac-compstatin] | 3
5 | Ac-ICVWQDWGAHRCT-CONH2 (Ac-ICVWQDWGAHRCT-NH2; disulfide 2-12 (inferred)) [Ac-V4W/H9A] | 45
6 | Ac-ICVWQDWGAHRCdT-COOH [Ac-V4W/H9A/T13dT-OH] | 55
7 | Ac-ICVYQDWGAHRCT-CONH2 [Ac-V4Y/H9A] | 14
8 | H-GICV(6fW)QD(6fW)GAHRCTN-COOH (GICVXQDXGAHRCTN; not fully specified; 6-fluoro-Trp residues; C-terminal acid; SITE 1 N-term H - hydrogenated Glycine; SITE 5 6-fluoro-tryptophan; SITE 8 6-fluoro-tryptophan; SITE 15 C-term COOH - Asparagine carboxide) [+G/V4(6fW)/W7(6fW)H9A + N-OH] | 126
